In US20130252813A1, “Herbicidal Compositions for Tolerant or Resistant Sugar Beet Crops” (Bayer CropScience AG, priority 1998, published 2013):

How the values were obtained:
Assay type in all cases: in vivo
Echinochloa crus-galli = experiment: Herbicidal action and selectivity in sugar beet crop (field trial, Table 4); details: application in 3-leaf stage, scoring 4 weeks after application
Description: (§1) Transgenic sugar beet plants with resistance to one or more herbicides (A) were grown together with typical weed plants in the open in 2×5 m plots under natural field conditions; alternatively, the weed population established naturally while the sugar beet plants grew. Treatment with the compositions according to the invention and, for control purposes, with separate application of the active ingredients of the components alone, was carried out under standard conditions with a plot sprayer at an application rate of 200-300 liters of water per hectare in parallel trials in accordance with the scheme of Table 1, i.e. pre-sowing/pre-emergence, […] or post-emergence at the early, medium or late stage.
(§2) At 2, 4, 6 and 8 week intervals after application, the herbicidal activity of the active ingredients or active ingredient mixtures were scored visually by comparing the treated plots with untreated control plots. Damage and development of all aerial plant organs was recorded. The scoring was done using a percentage scale (100% activity=all plants dead; 50% activity=50% of the plants and green plant organs dead; 0% activity=no discernible effect=like control plot). The score values of in each case 4 plots were averaged.

transgenic sugar beet [1] = experiment: Damage to transgenic sugar beet (field trial, Table 4); details: application in 3-leaf stage
Description: as §1, §2

Galium aparine [2] = experiment: Herbicidal action (field trial, Table 7); details: application in the 4-5-leaf stage, scoring 26 days after application
Description: as §1, §2

transgenic sugar beet [3] = experiment: Damage to transgenic sugar beet (greenhouse experiment, Table 3); set-up: scale not given here; details: greenhouse Table 3, application in the 4-5-leaf stage
Galium aparine [4] = experiment: Herbicidal action in sugar beet crop (greenhouse experiment, Table 3); details: application in the 4-5-leaf stage, scoring 3 weeks after application
Description: Seeds or rhizomes of monocotyledonous and dicotyledonous weeds are placed in sandy loam soil in cardboard pots, covered with soil and grown in the greenhouse under good growth conditions. […] The compositions according to the
Invention, which are formulated as wettable powders or as emulsion concentrates, are sprayed at various dosages onto the green plant organs at an application rate of 600 to 800 l of water per ha (converted). After the experimental plants have remained in the greenhouse for approx. 3 to 4 weeks under optimal growth conditions, the effect of the preparations is scored visually in comparison with untreated controls. The compositions according to the invention also have a good herbicidal activity against a broad spectrum of economically Important grass weeds and broad-leaved weeds when applied post-emergence.

Avena fatua = experiment: Herbicidal action and selectivity in sugar beet crop (field trial, Table 5); details: application in the 3-5-leaf stage, scoring 4 weeks after application
Description: as §1, §2

transgenic sugar beet [5] = experiment: Damage to transgenic sugar beet (field trial, Table 5); details: application in the 3-5-leaf stage
Description: as §1, §2

Amaranthus retroflexus = experiment: Herbicidal action (field trial, sequential treatment, Table 8); details: dose 3500 g A.S./ha pre-emergence; scorings 22 days after application
Description: as §1
(§3) […] Damage and development of all aerial plant organs was recorded. The scoring was done using a percentage scale (100% activity=all plants dead; 50% activity=50% of the plants and green plant organs dead; 0% activity=no discernible effect=like control plot). The score values of in each case 4 plots were averaged.

Setaria viridis [6] = experiment: as above; details: dose 3500 g A.S./ha pre-emergence; scorings 22 days after application
Description: as §1, §3

transgenic sugar beet [7] = experiment: Damage to transgenic sugar beet - field trial (Table 2); details: application in 2-4-leaf stage
Description: as §1, §2

Setaria viridis [8] = experiment: Herbicidal action in sugar beet - field trial (Table 2); details: application in 2-4-leaf stage, scoring 3 weeks after application
Description: as §1, §3

Question: Which results are given for `CCCC(=NOCC)C1=C(O)CC(C2CCCSC2)CC1=O` (stereo not shown) [(B4.2), 2-(1-ethoxyiminobutyl)-3-hydroxy-5-thian-3-ylcyclohex-2-enone]?
Answer: Herbicidal action in % against Echinochloa crus-galli (Echinochloa crus-galli; dose 62.5 g A.S./ha): 45%; Herbicidal action in % against Echinochloa crus-galli (Echinochloa crus-galli; dose 125 g A.S./ha): 70%; Herbicidal action in % against Echinochloa crus-galli (Echinochloa crus-galli; dose 250 g A.S./ha): 93%; Damage to transgenic sugar beet (transgenic sugar beet [1]; dose 62.5 g A.S./ha): 0; Damage to transgenic sugar beet (transgenic sugar beet [1]; dose 125 g A.S./ha): 0; Damage to transgenic sugar beet (transgenic sugar beet [1]; dose 250 g A.S./ha): 0

Question: What does the source list for `CC(C)N.O=C(O)CNCP(=O)(O)O` [(A2.2), monoisopropylammonlum salt of glyphosate]?
Answer: Herbicidal action in % against Galium aparine (Galium aparine [2]; dose 125 g A.S./ha): 10%; Herbicidal action in % against Galium aparine (Galium aparine [2]; dose 250 g A.S./ha): 40%; Herbicidal action in % against Galium aparine (Galium aparine [2]; dose 500 g A.S./ha): 60%; Herbicidal action in % against Galium aparine (Galium aparine [2]; dose 1000 g A.S./ha): 85%

Question: `COC(=O)Nc1cccc(NC(=O)Oc2cccc(C)c2)c1` [(B2.2), 3-methylphenyl N-[3-(methoxycarbonylamino)phenyl]carbamate] was tested. Which “Damage to transgenic sugar beet” value (transgenic sugar beet [3]; dose 500 g A.S./ha) did it give?
Answer: 0

Question: What about the “Damage to transgenic sugar beet” value (transgenic sugar beet [3]; dose 1000 g A.S./ha) of the same compound?
Answer: 0

Question: What about the “Damage to transgenic sugar beet” value (transgenic sugar beet [3]; dose 2000 g A.S./ha) of the same compound?
Answer: 0

Question: And the “Herbicidal action in % against Galium aparine” value (Galium aparine [4]; dose 500 g A.S./ha)?
Answer: 20%

Question: What about the “Herbicidal action in % against Galium aparine” value (Galium aparine [4]; dose 1000 g A.S./ha) of the same compound?
Answer: 30%

Question: What about the “Herbicidal action in % against Galium aparine” value (Galium aparine [4]; dose 2000 g A.S./ha) of the same compound?
Answer: 30%

Question: What about the “Herbicidal action in % against Galium aparine” value (Galium aparine [2]; dose 500 g A.S./ha) of the same compound?
Answer: 20%

Question: And the “Herbicidal action in % against Galium aparine” value (Galium aparine [2]; dose 1000 g A.S./ha)?
Answer: 30%

Question: And the “Herbicidal action in % against Galium aparine” value (Galium aparine [2]; dose 2000 g A.S./ha)?
Answer: 30%

Question: Which “Herbicidal action in % against Echinochloa crus-galli” value (Echinochloa crus-galli; dose 105 g A.S./ha) does the source give for `CCC/C(=N\OCC)C1=C(O)CC(CC(C)SCC)CC1=O` (stereo not shown) [(B4.1), (E,Z)-2-(1-ethoxyimino-butyl)-5-[2-(ethylthio)propyl]-3-hydroxycyclohex-2-enone] here?
Answer: 35%

Question: And the “Herbicidal action in % against Echinochloa crus-galli” value (Echinochloa crus-galli; dose 210 g A.S./ha)?
Answer: 73%

Question: What about the “Herbicidal action in % against Echinochloa crus-galli” value (Echinochloa crus-galli; dose 315 g A.S./ha) of the same compound?
Answer: 85%

Question: And the “Damage to transgenic sugar beet” value (transgenic sugar beet [1]; dose 105 g A.S./ha)?
Answer: 0

Question: And the “Damage to transgenic sugar beet” value (transgenic sugar beet [1]; dose 210 g A.S./ha)?
Answer: 0

Question: And the “Damage to transgenic sugar beet” value (transgenic sugar beet [1]; dose 315 g A.S./ha)?
Answer: 0

Question: Which “Herbicidal action in % against Avena fatua” value (Avena fatua; dose 15 g A.S./ha) does the source give for `CCOC(=O)C(C)Oc1ccc(Oc2nc3ccc(Cl)cc3o2)cc1` (racemic) [(B3.2), fenoxaprop-ethyl (rac.)] here?
Answer: 20%

Question: And the “Herbicidal action in % against Avena fatua” value (Avena fatua; dose 30 g A.S./ha)?
Answer: 60%

Question: And the “Herbicidal action in % against Avena fatua” value (Avena fatua; dose 60 g A.S./ha)?
Answer: 85%

Question: And the “Damage to transgenic sugar beet” value (transgenic sugar beet [5]; dose 15 g A.S./ha)?
Answer: 0

Question: What about the “Damage to transgenic sugar beet” value (transgenic sugar beet [5]; dose 30 g A.S./ha) of the same compound?
Answer: 0

Question: And the “Damage to transgenic sugar beet” value (transgenic sugar beet [5]; dose 60 g A.S./ha)?
Answer: 0

Question: How did the “Damage to transgenic sugar beet” value (transgenic sugar beet [3]; dose 750 g A.S./ha) turn out when `Cc1nnc(-c2ccccc2)c(=O)n1N` [(B1.4), 4-amino-4,5-dihydro-3-methyl-6-phenyl-1,2,4-triazin-5-one] was run?
Answer: 0

Question: What about the “Damage to transgenic sugar beet” value (transgenic sugar beet [3]; dose 1500 g A.S./ha) of the same compound?
Answer: 0

Question: What about the “Damage to transgenic sugar beet” value (transgenic sugar beet [3]; dose 3000 g A.S./ha) of the same compound?
Answer: 0

Question: And the “Herbicidal action in % against Galium aparine” value (Galium aparine [4]; dose 750 g A.S./ha)?
Answer: 5%

Question: What about the “Herbicidal action in % against Galium aparine” value (Galium aparine [4]; dose 1500 g A.S./ha) of the same compound?
Answer: 5%

Question: And the “Herbicidal action in % against Galium aparine” value (Galium aparine [4]; dose 3000 g A.S./ha)?
Answer: 5%

Question: And the “Herbicidal action in % against Amaranthus retroflexus” value (Amaranthus retroflexus)?
Answer: 73%

Question: And the “Herbicidal action in % against Setaria viridis” value (Setaria viridis [6])?
Answer: 20%

Question: For `O=C(O)c1nc(Cl)ccc1Cl` [(B2.4), 3,6-dichloropyridine-2-carboxylic acid], which “Damage to transgenic sugar beet” value (transgenic sugar beet [3]; dose 50 g A.S./ha) is on record?
Answer: 0

Question: And the “Damage to transgenic sugar beet” value (transgenic sugar beet [3]; dose 100 g A.S./ha)?
Answer: 0

Question: What about the “Damage to transgenic sugar beet” value (transgenic sugar beet [3]; dose 200 g A.S./ha) of the same compound?
Answer: 0

Question: What about the “Herbicidal action in % against Galium aparine” value (Galium aparine [4]; dose 50 g A.S./ha) of the same compound?
Answer: 5%

Question: What about the “Herbicidal action in % against Galium aparine” value (Galium aparine [4]; dose 100 g A.S./ha) of the same compound?
Answer: 35%

Question: What about the “Herbicidal action in % against Galium aparine” value (Galium aparine [4]; dose 200 g A.S./ha) of the same compound?
Answer: 45%

Question: Which results are given for `Cc1cccc(S(=O)(=O)NC(=O)Nc2nc(OCC(F)(F)F)nc(N(C)C)n2)c1C(=O)O` [(B1.3)]?
Answer: Damage to transgenic sugar beet (transgenic sugar beet [7]; dose 8 g A.S./ha): 0; Damage to transgenic sugar beet (transgenic sugar beet [7]; dose 17 g A.S./ha): 0; Herbicidal action in % against Setaria viridis (Setaria viridis [8]; dose 8 g A.S./ha): 0%; Herbicidal action in % against Setaria viridis (Setaria viridis [8]; dose 17 g A.S./ha): 20%
